Experimental data published in the NIST ThermoML archive (doi:10.1016/j.jct.2015.12.021).

Conditions: Liquid

CCCCCCCCCCCC [dodecane]
viscosity [mPa·s]
Conditions	293.15 K	313.15 K	333.15 K	353.15 K	373.15 K
100 kPa, Vibrating wire viscometry	1.491	1.064	0.8013	0.6281	0.5055
1000 kPa, Vibrating wire viscometry	1.507	1.074	0.8127	0.6372	0.5149
5000 kPa, Falling or rolling sphere viscometry	–	1.135	0.8518	0.6657	–
5000 kPa, Vibrating wire viscometry	1.586	1.124	0.855	0.6713	0.5392
10000 kPa, Falling or rolling sphere viscometry	–	1.218	0.903	0.7047	–
10000 kPa, Vibrating wire viscometry	1.672	1.201	0.8975	0.7053	0.5743
20000 kPa, Falling or rolling sphere viscometry	–	–	1.002	0.7791	–
20000 kPa, Vibrating wire viscometry	1.877	1.324	1.001	0.7819	0.6286
30000 kPa, Falling or rolling sphere viscometry	–	–	1.112	0.8651	–
30000 kPa, Vibrating wire viscometry	2.084	1.476	1.095	0.8694	0.7003
40000 kPa, Falling or rolling sphere viscometry	–	–	1.223	0.9597	–
40000 kPa, Vibrating wire viscometry	2.31	1.625	1.216	0.9528	0.7715
50000 kPa, Vibrating wire viscometry	2.56	1.778	1.321	1.037	0.8425
60000 kPa, Falling or rolling sphere viscometry	–	–	–	1.121	–
60000 kPa, Vibrating wire viscometry	2.822	1.946	1.44	1.123	0.91
70000 kPa, Vibrating wire viscometry	3.112	2.129	1.576	1.213	0.9844
80000 kPa, Vibrating wire viscometry	3.428	2.32	1.707	1.312	1.066
100000 kPa, Vibrating wire viscometry	4.117	2.758	1.994	1.532	1.22
120000 kPa, Vibrating wire viscometry	4.953	3.231	2.302	1.757	1.402
140000 kPa, Vibrating wire viscometry	5.816	3.755	2.657	2.023	1.588

CCCCCCC [heptane]
viscosity [mPa·s]
Conditions	293.15 K	298.15 K	313.15 K	333.15 K	353.15 K	363.15 K
100 kPa, Vibrating wire viscometry	0.4151	0.3914	0.3379	0.2821	0.2406	0.2224
1000 kPa, Vibrating wire viscometry	0.4202	0.3962	0.3412	0.2844	0.2435	0.2254
5000 kPa, Falling or rolling sphere viscometry	0.4359	–	0.3564	–	–	–
5000 kPa, Vibrating wire viscometry	0.4354	0.4142	0.354	0.2965	0.2549	0.2374
10000 kPa, Falling or rolling sphere viscometry	0.4603	–	0.3756	–	–	–
10000 kPa, Vibrating wire viscometry	0.4579	0.4329	0.3735	0.3121	0.2672	0.2493
20000 kPa, Falling or rolling sphere viscometry	0.5074	–	0.4131	–	–	–
20000 kPa, Vibrating wire viscometry	0.5013	0.4756	0.4074	0.3415	0.2957	0.2757
30000 kPa, Falling or rolling sphere viscometry	0.5517	–	0.4518	–	–	–
30000 kPa, Vibrating wire viscometry	0.5459	0.5175	0.4462	0.3746	0.3216	0.2996
40000 kPa, Falling or rolling sphere viscometry	0.5949	–	0.4899	–	–	–
40000 kPa, Vibrating wire viscometry	0.595	0.5613	0.4806	0.4061	0.3493	0.3252
50000 kPa, Vibrating wire viscometry	0.6406	0.6081	0.5208	0.4355	0.373	0.3504
60000 kPa, Falling or rolling sphere viscometry	0.6912	–	0.5683	–	–	–
60000 kPa, Vibrating wire viscometry	0.6927	0.6535	0.5563	0.4681	0.4019	0.3754
70000 kPa, Vibrating wire viscometry	0.7446	0.7026	0.5992	0.5022	0.4304	0.3978
80000 kPa, Falling or rolling sphere viscometry	0.7864	–	0.6498	–	–	–
80000 kPa, Vibrating wire viscometry	0.7965	0.7519	0.64	0.5337	0.457	0.4243
100000 kPa, Falling or rolling sphere viscometry	0.9027	–	0.7309	–	–	–
100000 kPa, Vibrating wire viscometry	0.9106	0.8572	0.7259	0.603	0.5119	0.4782
120000 kPa, Falling or rolling sphere viscometry	1.031	–	0.8186	–	–	–
120000 kPa, Vibrating wire viscometry	1.028	0.972	0.8176	0.6736	0.5735	0.5314
140000 kPa, Vibrating wire viscometry	1.16	1.089	0.9137	0.7509	0.6335	0.5865
